# In patent US5545667A, “Methods for treating neoplasms with betaines” (The Clorox Company, priority 1994, dated 1996):
# Structures can show the parent of a compound that is named as a salt.
# Experiments:
# alloreactive Tc cells = settings: dosages between 10 ng/ml and 100 ug/ml; WO85/05031; cited from earlier work
# [1] = Critical micelle concentration (cmc); assay type: physicochemical
# Source text: "Critical micelle concentration" or "cmc" refers to the point at which micelle formation begins.
# HL-60 cells = test: Cell growth inhibition assay, HL-60; assay type: cell-based, human
# Procedure: (§1) Established cell lines are the system of choice for the prescreening of unknown compounds for antineoplastic activity. The tumor cell line screen works on the following principle. Cancer cells, if provided with enough nutrients, will grow unchecked in vitro, allowing researchers to grow many types of cancer cells outside the body. To perform an assay, standard amounts of the various cancer cells are placed in individual wells of a microtiter plate, and incubated with the potential antineoplastic compound of interest, for a sufficient period of time to allow for at least a 6-fold control growth, generally 1 to 5 days depending on cell origin. At the end of the incubation period, the cell lines are stained and assayed by a variety of means including, for example, proteins stains or a colorimeter for normal growth, growth inhibition or cytotoxicity. These assays measure a compound's ability to inhibit cell growth and a positive response of the compounds in these assays would be indicative of the therapeutic potential of these compounds. See, for example, the protocols and data presented in Laskin et al., (1979) Cancer Res 39:383-390 for 5-fluorouracil in mouse and human cells in culture.
# (§2) A total of ten cell lines were used to evaluate the growth inhibitory potency of the various surfactants. In these studies, human, rat, mouse and bovine cells were used. A spectrum of different tumor cell types were used including those derived from keratinocytes (PAM 212), leukemias (HL-60, U-937 and K-562), an epitheloid carcinoma (HeLa) and melanoma (B-16). The B16 melanoma was used since this is a common cell type used to evaluate antimetastatic activity of test compounds. The effect of the surfactants on three fibroblast cell lines (C3H 10T1/2, NIH 3T3 and R6) were also evaluated for comparison to the tumor cell lines. The activity of the surfactants was also evaluated using pulmonary aortic endothelial cells for effectiveness as antiangiogenic agents.
# (§3) PAM 212 cells are a mouse keratinocyte-derived tumor cell line. U-937 cells are a human histiocytic tumor cell line. HeLa cells are an epitheloid tumor cell line. Three murine fibroblast cells lines tested included the mouse fibroblast cell line, C3H 10T1/2, the rat fibroblast cell line R6, and the NIH 3T3 mouse fibroblast cell line. The human leukemia cell line HL-60 and the mouse melanoma B-16 cell were also tested. K-562 cells were from the American Type Culture Collection. All cells were grown in Dulbecco's modified Eagle's medium in a 37° C. incubator in an atmosphere of 5% CO2.
# (§4) For growth inhibition assays, cells were seeded at low density (2.5×10^4 cells in 0.5 ml of culture medium) into 24-well tissue culture plates (Falcon Labware, Lincoln Park, N.J.). After 24 hours at 37° C., increasing concentrations (1 to 100 uM) of the surfactants were added to the cells in the culture plate. Control cultures were incubated in the absence of any surfactant. The cells were then incubated for 3-4 days to allow for growth. Cells from individual wells in the culture plate were then removed and duplicate samples taken for counting using a Coulter counter. To remove adherent cells the plates were treated with 0.25% trypsin/0.2% EDTA (GIBCO, Grand Island, N.Y.).
# R6 cells = test: Cell growth inhibition assay, R6; assay type: cell-based, rat; settings: Fibroblast; R6 rat fibroblasts; 3-4 days; read-out: IC50 (uM conc. inhibiting growth of the cells by 50%)
# Procedure: as §1, §2, §3, §4
# [2] = test system: HeLa cells, RNA synthesis; test: RNA synthesis in HeLa cells (3H-uridine); assay type: cell-based; settings: Homo sapiens, FIG. 2, 2 hours 3H-uridine, read-out: IC50 for uridine uptake (RNA synthesis)
# Procedure: (§5) The 16-5B compound was evaluated further using HeLa cells to gain some insight into the mechanism of action of this group of compounds. In these studies, the ability of this compound to inhibit macromolecular synthesis in the cells was examined. The effects of 16-5B on DNA, RNA and protein synthesis was monitored using labeled thymidine, uridine or leucine, respectively. These precursors readily incorporate into the appropriate cellular macromolecules in the cells.
# (§6) For assays of macromolecular biosynthesis in HeLa cells, cells were seeded into 60 mm culture dishes (Falcon Labware, Lincoln Park, N.J.) at a density 1×10^5 /ml in 5 mls of cell culture medium. Cells were allowed to grow at 37° C. for 48 hours before use. Culture plates were then removed from the incubator and washed with phosphate buffered saline. The cells were then incubated with increasing concentrations of the 16-5B in 2 ml of serum-free Dulbecco's modified Eagle's medium supplemented with 0.075% sodium bicarbonate. Control cultures were incubated in cell culture medium without surfactant. […] Two 0.5 ml aliquots were neutralized and counted for radioactivity using a scintillation counter.
# PAM 212 cells = test: Cell growth inhibition assay (surfactants, 3-4 days, Coulter counter), PAM 212; assay type: cell-based, mouse; settings: PAM212; PAM 212 mouse keratinocyte-derived tumor cells; 3-4 days; read-out: IC50 (uM conc. inhibiting growth of the cells by 50%)
# Procedure: as §1, §2, §3, §4
# B-16 cells = test: Cell growth inhibition assay, B-16 melanoma; assay type: cell-based, mouse; settings: B16; B-16 mouse melanoma cells; 3-4 days; read-out: IC50 (uM conc. inhibiting growth of the cells by 50%)
# Procedure: as §1, §2, §3, §4
# [3] = test system: HeLa cells, DNA synthesis; test: DNA synthesis in HeLa cells (3H-thymidine); assay type: cell-based
# Procedure: as §5, §6
# [4] = test system: HeLa cells, protein synthesis; test: Protein synthesis in HeLa cells (3H-leucine); assay type: cell-based; settings: Homo sapiens, FIG. 2, 4 hours 3H-leucine, read-out: IC50 for leucine uptake (protein synthesis)
# Procedure: as §5, §6
# K-562 cells = test: Cell growth inhibition assay, K-562; assay type: cell-based; settings: Homo sapiens, K562; K-562 leukemia cells; 3-4 days; read-out: IC50 (uM conc. inhibiting growth of the cells by 50%)
# Procedure: as §1, §2, §3, §4
# CPA-5 cells = test: Cell growth inhibition assay, CPA-5 endothelial cells; assay type: cell-based, bovine; settings: Bos taurus, CPA-5 bovine aortic endothelial cells, 3-4 days, read-out: IC50 (uM conc. inhibiting growth of the cells by 50%)
# Source text: as §2, §3, §4
# The compounds were tested as inhibitors of growth in the bovine aortic endothelial cell line CPA-5 as taught in Example 2 in order to evaluate the possibility that they may be anti-angiogenesis agents. A hallmark of angiogenesis is the outgrowth of endothelial cells which are required in the formation of new blood vessels. This process is a critical factor in the vascularization of tumors. Inhibition of neovascularization limits the growth of tumors and would be an effective means of treating cancer. FIG. 3 illustrates that three of the compounds, 8-3S, 12-5B and 12-1B, had no activity against the CPA-5 cell line in the concentration range tested (IC50 =>100 uM), while only relatively high concentrations of 12-3S (IC50 =70 uM) were effective in inhibiting the growth of CPA-5 cells. As indicated above, with several exceptions, these compounds were also not very effective in inhibiting the growth of each of the other cell types.
# NIH 3T3 cells = test: Cell growth inhibition assay, NIH 3T3; assay type: cell-based, mouse; settings: NIH3T3; NIH 3T3 mouse fibroblasts; 3-4 days; read-out: IC50 (uM conc. inhibiting growth of the cells by 50%)
# Procedure: as §1, §2, §3, §4
# C3H 10T1/2 cells = test: Cell growth inhibition assay, C3H 10T1/2; assay type: cell-based, mouse; settings: C3H 10T1/2 mouse fibroblasts; 3-4 days; read-out: IC50 (uM conc. inhibiting growth of the cells by 50%)
# Procedure: as §1, §2, §3, §4
# ten cell lines = test: Cell growth inhibition assays, panel of cell lines; assay type: cell-based, human, rat, mouse and bovine
# Source text: as §2, §3, §4
smiles,measurement,setting,value
CCCCCCCCCCCC[N+](C)(C)CCCCCCCCCCCC.[Br-] [didodecyl dimethyl ammonium bromide],immunosuppressive on alloreactive Tc cells,alloreactive Tc cells,immunosuppressive on alloreactive Tc cells
"CCCCCCCCCCCCCCCC[N+](C)(C)CCCCCC(=O)[O-] [16-5B, N-(5-carboxypentyl)-N,N-dimethyl-1-hexadecanaminium hydroxide inner salt]",cmc,[1],10 µM
same,IC50,"HL-60 cells; HL-60 human leukemia cells, 3-4 days, read-out: IC50 (uM conc. inhibiting growth of the cells by 50%)",0.5 µM
same,fold greater sensitivity of HL-60 among the leukemia cells,HL-60 cells; HL-60 versus other leukemia cells,10 to 100 fold
same,IC50,R6 cells,18 µM
same,IC50,[2],30 µM
same,IC50,PAM 212 cells,6 µM
same,IC50,B-16 cells,20 µM
same,selective inhibition of macromolecular synthesis,"[3]; DNA, RNA and protein synthesis compared",does not appear to selectively inhibit any of these processes
same,IC50,"[3]; Homo sapiens, FIG. 2, 1 hour 3H-thymidine, read-out: IC50 for thymidine uptake (DNA synthesis)",30 µM
same,IC50,[4],30 µM
same,IC50,K-562 cells,5.5 µM
same,IC50,CPA-5 cells,18 µM
same,IC50,NIH 3T3 cells,24 µM
same,IC50,C3H 10T1/2 cells,53 µM
same,fold concentration required to inhibit K-562 and U-937 growth relative to HL-60,ten cell lines; K-562 and U-937 versus HL-60,approximately ten
same,fold concentration range spanned by the IC50's,ten cell lines; across cell lines,100 fold
same,IC50,"ten cell lines; all / all other cell lines tested, read-out: IC50 over the cell lines tested (range or bound)",0.5 to 53 µM
same,activity against all of the cell lines tested,ten cell lines; growth inhibition,considerable activity against all of the cell lines tested
